Key:
[1] = target: 3',5'-cyclic-AMP phosphodiesterase 4A (Homo sapiens, UniProt P27815); type: functional
[2] = target: T1, 5-hydroxytryptamine receptor 1A (Homo sapiens, UniProt P08908)
T1 sequence (P08908 whole entry): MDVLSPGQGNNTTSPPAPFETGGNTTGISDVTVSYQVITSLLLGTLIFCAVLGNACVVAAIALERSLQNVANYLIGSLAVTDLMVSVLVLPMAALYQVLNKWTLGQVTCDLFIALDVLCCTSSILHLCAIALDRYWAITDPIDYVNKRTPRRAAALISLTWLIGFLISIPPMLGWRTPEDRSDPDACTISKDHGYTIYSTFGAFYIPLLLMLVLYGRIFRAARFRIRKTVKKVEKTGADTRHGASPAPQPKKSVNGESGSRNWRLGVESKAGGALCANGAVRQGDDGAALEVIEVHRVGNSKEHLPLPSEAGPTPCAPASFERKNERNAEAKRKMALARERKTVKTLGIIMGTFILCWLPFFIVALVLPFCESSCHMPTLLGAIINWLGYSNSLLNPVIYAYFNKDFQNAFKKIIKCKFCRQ

[3] = target: T2, Alpha-1A adrenergic receptor (Homo sapiens, UniProt P35348); type: functional, cell-based
T2 sequence (P35348 whole entry): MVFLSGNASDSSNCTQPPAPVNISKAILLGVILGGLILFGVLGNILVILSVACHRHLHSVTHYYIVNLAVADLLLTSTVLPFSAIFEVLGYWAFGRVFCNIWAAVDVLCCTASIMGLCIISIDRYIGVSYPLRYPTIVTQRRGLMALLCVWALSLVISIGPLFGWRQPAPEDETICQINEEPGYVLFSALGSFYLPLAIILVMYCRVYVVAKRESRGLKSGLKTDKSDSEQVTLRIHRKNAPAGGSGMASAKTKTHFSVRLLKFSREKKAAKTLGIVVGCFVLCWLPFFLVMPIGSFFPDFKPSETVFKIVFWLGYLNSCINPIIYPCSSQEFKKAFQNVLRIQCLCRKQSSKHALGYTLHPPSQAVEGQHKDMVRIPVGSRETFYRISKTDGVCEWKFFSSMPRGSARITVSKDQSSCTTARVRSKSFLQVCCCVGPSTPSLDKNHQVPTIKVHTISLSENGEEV

Prothrombin = Prothrombin (Homo sapiens, UniProt P00734); type: functional
[4] = target: Sodium-dependent dopamine transporter (Homo sapiens, UniProt Q01959)
[5] = target: T3, Muscarinic acetylcholine receptor M1 (Homo sapiens, UniProt P11229); type: functional, cell-based
T3 sequence (P11229 whole entry): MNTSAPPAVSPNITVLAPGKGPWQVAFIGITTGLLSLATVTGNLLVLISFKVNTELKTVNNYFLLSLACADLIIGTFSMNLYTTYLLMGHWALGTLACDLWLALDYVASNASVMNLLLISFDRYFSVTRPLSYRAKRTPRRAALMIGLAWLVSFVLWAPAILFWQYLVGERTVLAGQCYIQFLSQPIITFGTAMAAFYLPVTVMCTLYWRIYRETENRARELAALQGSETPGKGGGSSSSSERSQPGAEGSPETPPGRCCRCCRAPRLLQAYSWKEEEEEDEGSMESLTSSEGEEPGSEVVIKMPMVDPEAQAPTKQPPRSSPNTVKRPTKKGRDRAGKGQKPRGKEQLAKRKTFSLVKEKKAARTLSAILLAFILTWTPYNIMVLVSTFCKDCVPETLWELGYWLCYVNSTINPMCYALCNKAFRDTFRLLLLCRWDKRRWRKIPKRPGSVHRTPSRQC

Progesterone receptor = target: T4, Progesterone receptor (Homo sapiens, UniProt P06401); type: functional
T4 sequence (P06401 whole entry): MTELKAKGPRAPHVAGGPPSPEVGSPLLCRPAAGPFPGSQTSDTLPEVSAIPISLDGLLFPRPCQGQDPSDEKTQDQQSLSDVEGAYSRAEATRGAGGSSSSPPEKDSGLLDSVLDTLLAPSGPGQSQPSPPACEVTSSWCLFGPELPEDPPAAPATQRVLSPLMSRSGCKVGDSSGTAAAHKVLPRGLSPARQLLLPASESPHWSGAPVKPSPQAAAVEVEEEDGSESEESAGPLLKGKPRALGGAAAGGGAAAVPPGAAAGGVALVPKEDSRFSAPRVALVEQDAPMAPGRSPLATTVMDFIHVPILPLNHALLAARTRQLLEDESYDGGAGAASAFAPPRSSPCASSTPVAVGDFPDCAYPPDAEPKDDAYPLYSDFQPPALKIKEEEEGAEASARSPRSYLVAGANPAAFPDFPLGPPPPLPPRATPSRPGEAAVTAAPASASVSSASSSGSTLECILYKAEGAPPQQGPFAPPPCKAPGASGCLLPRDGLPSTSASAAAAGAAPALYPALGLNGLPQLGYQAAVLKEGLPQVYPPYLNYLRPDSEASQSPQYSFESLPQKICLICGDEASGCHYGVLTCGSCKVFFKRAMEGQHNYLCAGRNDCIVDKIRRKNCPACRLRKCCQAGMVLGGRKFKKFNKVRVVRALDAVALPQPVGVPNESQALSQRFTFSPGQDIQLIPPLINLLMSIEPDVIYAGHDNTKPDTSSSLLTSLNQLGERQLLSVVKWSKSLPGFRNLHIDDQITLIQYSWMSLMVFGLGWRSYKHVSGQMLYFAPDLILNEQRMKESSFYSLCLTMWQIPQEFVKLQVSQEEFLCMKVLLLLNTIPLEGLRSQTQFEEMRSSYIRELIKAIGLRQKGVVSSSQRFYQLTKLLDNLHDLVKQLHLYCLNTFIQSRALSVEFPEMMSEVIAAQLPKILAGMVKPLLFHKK

[6] = target: 5-hydroxytryptamine receptor 2A (Homo sapiens, UniProt P28223); type: functional, cell-based
Vasopressin V1a receptor = Vasopressin V1a receptor (Homo sapiens, UniProt P37288)
D(1A) dopamine receptor = D(1A) dopamine receptor (Homo sapiens, UniProt P21728); type: functional, cell-based
Cannabinoid receptor 1 = Cannabinoid receptor 1 (Homo sapiens, UniProt P21554)
[7] = target: Muscarinic acetylcholine receptor M3 (Homo sapiens, UniProt P20309)
[8] = target: Beta-2 adrenergic receptor (Homo sapiens, UniProt P07550); type: functional, cell-based
[9] = target: Gamma-aminobutyric acid receptor subunit alpha-1 (Rattus norvegicus, UniProt P62813)
Note: assay procedure not described here.

Sequence of 3',5'-cyclic-AMP phosphodiesterase 4A (P27815 whole entry): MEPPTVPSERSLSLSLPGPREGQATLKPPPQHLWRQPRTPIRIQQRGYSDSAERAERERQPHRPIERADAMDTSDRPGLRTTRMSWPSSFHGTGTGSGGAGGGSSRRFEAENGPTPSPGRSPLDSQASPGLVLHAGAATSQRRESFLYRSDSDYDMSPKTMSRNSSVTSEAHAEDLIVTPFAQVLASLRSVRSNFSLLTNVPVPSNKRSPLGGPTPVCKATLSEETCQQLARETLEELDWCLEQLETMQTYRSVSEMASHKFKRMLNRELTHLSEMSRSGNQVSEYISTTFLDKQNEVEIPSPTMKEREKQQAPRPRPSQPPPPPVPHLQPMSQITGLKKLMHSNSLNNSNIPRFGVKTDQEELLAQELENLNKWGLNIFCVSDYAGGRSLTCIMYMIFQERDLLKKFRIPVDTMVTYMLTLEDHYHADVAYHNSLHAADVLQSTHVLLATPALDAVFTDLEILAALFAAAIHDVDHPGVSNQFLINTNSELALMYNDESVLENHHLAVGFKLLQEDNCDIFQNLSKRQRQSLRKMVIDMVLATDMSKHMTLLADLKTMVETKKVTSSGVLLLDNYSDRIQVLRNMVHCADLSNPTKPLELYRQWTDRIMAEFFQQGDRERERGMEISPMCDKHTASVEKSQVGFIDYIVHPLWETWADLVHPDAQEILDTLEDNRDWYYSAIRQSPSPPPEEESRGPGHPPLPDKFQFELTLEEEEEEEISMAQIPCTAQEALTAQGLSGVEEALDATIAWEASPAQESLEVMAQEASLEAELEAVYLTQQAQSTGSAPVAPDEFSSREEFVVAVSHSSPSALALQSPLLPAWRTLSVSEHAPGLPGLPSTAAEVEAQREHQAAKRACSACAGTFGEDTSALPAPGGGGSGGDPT
Sequence of Sodium-dependent dopamine transporter (Q01959 whole entry): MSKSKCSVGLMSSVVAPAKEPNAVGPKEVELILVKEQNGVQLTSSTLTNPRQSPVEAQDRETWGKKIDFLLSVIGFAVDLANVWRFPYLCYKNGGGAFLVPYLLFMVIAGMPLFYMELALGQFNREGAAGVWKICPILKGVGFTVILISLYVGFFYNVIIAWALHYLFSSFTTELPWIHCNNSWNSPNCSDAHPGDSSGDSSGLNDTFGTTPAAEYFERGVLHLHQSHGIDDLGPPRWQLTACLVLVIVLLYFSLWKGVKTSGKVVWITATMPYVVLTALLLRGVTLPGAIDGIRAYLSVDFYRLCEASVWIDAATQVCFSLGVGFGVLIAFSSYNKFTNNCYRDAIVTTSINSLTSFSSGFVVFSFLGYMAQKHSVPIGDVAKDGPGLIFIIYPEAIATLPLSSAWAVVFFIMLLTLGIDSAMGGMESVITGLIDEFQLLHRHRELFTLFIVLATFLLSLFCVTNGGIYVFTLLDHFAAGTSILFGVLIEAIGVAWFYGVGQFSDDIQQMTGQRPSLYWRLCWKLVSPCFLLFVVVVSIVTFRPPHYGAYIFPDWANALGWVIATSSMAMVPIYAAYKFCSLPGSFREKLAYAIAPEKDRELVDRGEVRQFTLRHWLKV
Sequence of 5-hydroxytryptamine receptor 2A (P28223 whole entry): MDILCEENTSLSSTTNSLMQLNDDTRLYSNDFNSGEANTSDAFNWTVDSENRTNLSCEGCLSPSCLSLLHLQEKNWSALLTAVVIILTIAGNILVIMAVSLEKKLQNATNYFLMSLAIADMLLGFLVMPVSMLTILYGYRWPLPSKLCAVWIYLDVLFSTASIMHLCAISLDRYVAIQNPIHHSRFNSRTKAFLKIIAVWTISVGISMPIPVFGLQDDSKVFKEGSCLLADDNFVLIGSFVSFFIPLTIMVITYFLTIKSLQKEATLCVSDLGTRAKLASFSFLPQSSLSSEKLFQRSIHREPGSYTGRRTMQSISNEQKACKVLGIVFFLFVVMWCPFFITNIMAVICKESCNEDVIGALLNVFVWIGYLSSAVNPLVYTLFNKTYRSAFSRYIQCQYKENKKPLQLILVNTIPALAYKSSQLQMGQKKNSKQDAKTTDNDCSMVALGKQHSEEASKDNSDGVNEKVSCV
Sequence of Cannabinoid receptor 1 (P21554 whole entry): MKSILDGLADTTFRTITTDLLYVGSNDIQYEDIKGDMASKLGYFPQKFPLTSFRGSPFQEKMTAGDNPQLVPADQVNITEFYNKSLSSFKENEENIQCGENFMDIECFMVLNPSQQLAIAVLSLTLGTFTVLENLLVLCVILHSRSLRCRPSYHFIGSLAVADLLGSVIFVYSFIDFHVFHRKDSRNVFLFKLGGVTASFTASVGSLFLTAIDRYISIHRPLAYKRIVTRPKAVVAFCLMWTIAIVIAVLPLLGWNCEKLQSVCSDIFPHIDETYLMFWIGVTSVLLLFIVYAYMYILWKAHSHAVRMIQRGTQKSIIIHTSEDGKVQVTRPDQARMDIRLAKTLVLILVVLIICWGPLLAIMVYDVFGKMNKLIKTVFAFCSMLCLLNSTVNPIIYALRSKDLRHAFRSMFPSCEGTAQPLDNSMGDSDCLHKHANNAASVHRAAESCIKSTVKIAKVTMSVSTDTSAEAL
Sequence of Beta-2 adrenergic receptor (P07550 whole entry): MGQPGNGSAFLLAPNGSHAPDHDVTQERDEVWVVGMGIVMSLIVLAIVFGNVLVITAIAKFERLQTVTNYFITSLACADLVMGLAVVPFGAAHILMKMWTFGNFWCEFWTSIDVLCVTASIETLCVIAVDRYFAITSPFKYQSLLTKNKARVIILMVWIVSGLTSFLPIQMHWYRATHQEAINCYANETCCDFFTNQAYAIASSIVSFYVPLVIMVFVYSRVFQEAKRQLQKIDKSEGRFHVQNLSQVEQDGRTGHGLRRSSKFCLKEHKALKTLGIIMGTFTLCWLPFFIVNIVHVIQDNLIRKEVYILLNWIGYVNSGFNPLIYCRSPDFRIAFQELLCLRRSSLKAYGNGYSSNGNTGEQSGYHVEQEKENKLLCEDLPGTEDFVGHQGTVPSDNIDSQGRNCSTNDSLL
Sequence of Vasopressin V1a receptor (P37288 whole entry): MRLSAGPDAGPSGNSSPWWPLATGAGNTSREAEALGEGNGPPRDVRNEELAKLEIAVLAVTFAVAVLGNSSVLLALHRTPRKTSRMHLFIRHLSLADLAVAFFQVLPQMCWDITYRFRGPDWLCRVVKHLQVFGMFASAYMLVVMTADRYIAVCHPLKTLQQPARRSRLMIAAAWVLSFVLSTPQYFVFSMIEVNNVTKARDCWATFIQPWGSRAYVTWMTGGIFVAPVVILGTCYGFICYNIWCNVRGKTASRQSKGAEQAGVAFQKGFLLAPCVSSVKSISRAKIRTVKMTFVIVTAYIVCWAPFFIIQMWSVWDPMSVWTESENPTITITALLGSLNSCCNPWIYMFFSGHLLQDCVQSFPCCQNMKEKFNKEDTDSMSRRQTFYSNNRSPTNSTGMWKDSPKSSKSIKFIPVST
Sequence of D(1A) dopamine receptor (P21728 whole entry): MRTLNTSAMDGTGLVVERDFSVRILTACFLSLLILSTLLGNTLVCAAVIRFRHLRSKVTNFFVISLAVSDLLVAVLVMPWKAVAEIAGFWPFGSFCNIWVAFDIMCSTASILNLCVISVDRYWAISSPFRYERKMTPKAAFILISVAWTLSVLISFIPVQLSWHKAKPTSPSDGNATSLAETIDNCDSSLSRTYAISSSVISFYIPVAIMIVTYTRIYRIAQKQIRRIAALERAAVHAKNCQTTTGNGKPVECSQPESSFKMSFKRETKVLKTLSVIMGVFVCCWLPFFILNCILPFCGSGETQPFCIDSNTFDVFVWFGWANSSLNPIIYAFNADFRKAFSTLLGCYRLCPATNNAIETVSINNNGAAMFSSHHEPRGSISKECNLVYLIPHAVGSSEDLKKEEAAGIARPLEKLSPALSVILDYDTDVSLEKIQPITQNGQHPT
Sequence of Muscarinic acetylcholine receptor M3 (P20309 whole entry): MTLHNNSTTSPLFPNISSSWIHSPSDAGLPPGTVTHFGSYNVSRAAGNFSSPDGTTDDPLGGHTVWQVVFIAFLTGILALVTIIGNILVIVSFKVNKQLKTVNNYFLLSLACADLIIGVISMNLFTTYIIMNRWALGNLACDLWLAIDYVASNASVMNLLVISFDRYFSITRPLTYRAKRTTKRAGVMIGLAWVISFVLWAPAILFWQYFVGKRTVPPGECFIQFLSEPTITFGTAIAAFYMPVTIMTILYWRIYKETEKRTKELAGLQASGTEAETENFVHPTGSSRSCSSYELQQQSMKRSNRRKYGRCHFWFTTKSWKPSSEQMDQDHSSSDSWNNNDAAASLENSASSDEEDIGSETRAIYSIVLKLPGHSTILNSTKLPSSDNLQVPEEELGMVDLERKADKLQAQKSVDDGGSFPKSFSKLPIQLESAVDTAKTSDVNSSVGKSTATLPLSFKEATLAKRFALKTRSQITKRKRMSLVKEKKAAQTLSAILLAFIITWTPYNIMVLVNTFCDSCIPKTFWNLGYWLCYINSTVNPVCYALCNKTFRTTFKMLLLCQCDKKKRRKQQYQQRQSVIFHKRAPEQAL
Sequence of Gamma-aminobutyric acid receptor subunit alpha-1 (P62813 whole entry): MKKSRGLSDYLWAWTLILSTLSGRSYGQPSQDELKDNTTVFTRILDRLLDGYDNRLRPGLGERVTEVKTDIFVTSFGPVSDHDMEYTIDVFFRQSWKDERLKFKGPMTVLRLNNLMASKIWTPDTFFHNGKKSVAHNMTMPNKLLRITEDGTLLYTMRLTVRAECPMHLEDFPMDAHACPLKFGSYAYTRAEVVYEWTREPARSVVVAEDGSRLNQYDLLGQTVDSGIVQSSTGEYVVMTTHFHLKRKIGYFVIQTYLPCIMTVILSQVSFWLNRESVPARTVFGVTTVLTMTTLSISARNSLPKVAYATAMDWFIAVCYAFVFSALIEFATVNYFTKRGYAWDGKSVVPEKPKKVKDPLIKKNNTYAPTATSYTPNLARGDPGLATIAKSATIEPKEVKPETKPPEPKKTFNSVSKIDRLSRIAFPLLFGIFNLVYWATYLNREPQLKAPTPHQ

Row | Compound | AC50 [1] [µM] | AC50 [2] [µM] | AC50 [3] [µM] | AC50 (Prothrombin) [µM] | AC50 [4] [µM] | AC50 [5] [µM] | AC50 (Progesterone receptor) [µM] | AC50 [6] [µM] | AC50 (Vasopressin V1a receptor) [µM] | AC50 (D(1A) dopamine receptor) [µM] | AC50 (Cannabinoid receptor 1) [µM] | AC50 [7] [µM] | AC50 [8] [µM] | AC50 [9] [µM]
1 | CCN(CCCc1ccccc1)CCCc1ccccc1 [ALVERINE] | > 30 | 0.029 | 0.978 | > 30 | 0.481 | 0.198 |  |  |  |  |  |  |  | 
2 | COc1cc2c(cc1OC)CC(=O)N(CCCN(C)C[C@H]1Cc3cc(OC)c(OC)cc31)CC2 [IVABRADINE] | > 30 | 5.81 | > 30 | > 30 | > 30 | > 30 |  |  |  |  |  |  |  | 
3 | COc1cc(N2CCC(N3CCN(C)CC3)CC2)ccc1Nc1ncc(Cl)c(Nc2ccccc2P(C)(C)=O)n1 [BRIGATINIB] | > 30 | > 30 | > 30 | > 30 | > 30 | > 30 |  |  |  |  |  |  |  | 
4 | CCN(CC)C(=S)S [DITIOCARB] | > 30 | > 30 | > 1 | > 30 | > 30 | > 1 |  |  |  |  |  |  |  | 
5 | CC[C@@H]([C@H](C)O)n1ncn(-c2ccc(N3CCN(c4ccc(OC[C@@H]5CO[C@@](Cn6cncn6)(c6ccc(F)cc6F)C5)cc4)CC3)cc2)c1=O [POSACONAZOLE] | > 30 | > 30 | > 1 | > 30 | > 30 | > 1 | > 30 |  |  |  |  |  |  | 
6 | CCOC(=O)[C@H](CCc1ccccc1)N[C@@H](C)C(=O)N(CC(=O)O)C1Cc2ccccc2C1 | > 30 | > 30 | > 30 | > 30 | > 30 | > 30 |  |  |  |  |  |  |  | 
7 | CCC(=O)O[C@]1(C(=O)CCl)[C@@H](C)C[C@H]2[C@@H]3C[C@H](F)C4=CC(=O)C=C[C@]4(C)[C@@]3(F)[C@@H](O)C[C@@]21C [HALOBETASOL PROPIONATE] | > 30 | > 30 | 13.1 | > 30 | > 30 | 14.9 |  |  |  |  |  |  |  | 
8 | NCC(CC(=O)O)c1ccccc1 (configuration not stated) [PHENIBUT] | > 30 | > 30 | > 30 | > 30 | > 30 | > 30 |  |  |  |  |  |  |  | 
9 | c1ccc2c(c1)CCc1ccccc1N2C1CN2CCC1CC2 (configuration not stated) [QUINUPRAMINE] | > 30 | 23.3 | 2.41 | > 30 | 2.62 | 0.0076 |  |  |  |  |  |  |  | 
10 | CCOC(=O)N1CSC[C@H]1C(=O)O [TELMESTEINE] | > 30 | > 30 | > 30 | > 30 | > 30 | > 30 |  |  |  |  |  |  |  | 
11 | Cc1ncc(COP(=O)(O)O)c(C=O)c1O [PYRIDOXAL PHOSPHATE ANHYDROUS] | 19.5 | > 30 | > 30 | > 30 | > 30 | > 30 |  |  |  |  |  |  |  | 
12 | CC(N)Cc1ccc(O)cc1 (configuration not stated) [HYDROXYAMPHETAMINE] | > 30 | > 30 | > 30 | > 30 | > 30 | > 30 |  |  |  |  |  |  |  | 
13 | CCOC(=O)c1cncn1[C@H](C)c1ccccc1 [ETOMIDATE] |  |  |  |  |  |  | > 10 | > 10 | > 10 | > 10 | > 10 | > 30 | > 30 | 
14 | NC(=O)OCC(O)COc1ccc(Cl)cc1 (configuration not stated) [CHLORPHENESIN CARBAMATE] | > 30 | > 30 | > 30 | > 30 | > 30 | > 30 |  |  |  |  |  |  |  | 
15 | C=CCSCC1Nc2cc(Cl)c(S(N)(=O)=O)cc2S(=O)(=O)N1 (configuration not stated) [ALTHIAZIDE] | > 30 | > 30 | > 30 | > 30 | > 30 | > 30 |  |  |  |  |  |  |  | 
16 | CN1C(=O)/C(=N\NC(N)=S)c2ccccc21 [METHISAZONE] | > 30 | > 30 | 13.1 | > 30 | > 30 | > 3 |  |  |  |  |  |  |  | 
17 | CC(C)N(CCNC(=O)CN1CCCC1=O)C(C)C | > 30 | > 30 | > 30 | > 30 | > 30 | > 30 |  |  |  |  |  |  |  | 
18 | C[C@H](Cc1cc2c(c(C(N)=O)c1)N(CCCO)CC2)NCCOc1ccccc1OCC(F)(F)F [SILODOSIN] | > 30 | 0.003 | 0.003 | > 30 | 18.6 | > 30 |  |  |  |  |  |  |  | 
19 | CCCc1nc(C(C)(C)O)c(C(=O)O)n1Cc1ccc(-c2ccccc2-c2nnn[nH]2)cc1 [OLMESARTAN] | > 30 | > 30 | > 30 | > 30 | > 30 | > 30 |  |  |  |  |  |  |  | 
20 | CN(C)CCOC(c1ccccc1)c1ccc(Br)cc1 (configuration not stated) [BROMODIPHENHYDRAMINE] | > 30 | 22.2 | > 10 | > 30 | 0.757 | 1.49 |  |  |  |  |  |  |  | 
21 | Cc1cc(NC(=O)C2=C(O)c3ccccc3S(=O)(=O)N2C)no1 [ISOXICAM] | > 30 | > 30 | > 30 | > 30 | > 30 | > 30 |  |  |  |  |  |  |  | 
22 | CC1=CCC(C(C)(C)O)CC1O (configuration not stated) [SOBREROL] | > 30 | > 30 | > 30 | > 30 | > 30 | > 30 |  |  |  |  |  |  |  | 
23 | Cc1cc(N)c2ccccc2[n+]1CCCCCCCCCC[n+]1c(C)cc(N)c2ccccc21 | 3.16 | 2.53 | 3.21 | 28.8 | 0.89 | 0.611 |  |  |  |  |  |  |  | 
24 | CCC(=O)O[C@H]1CC[C@H]2[C@@H]3CCC4=CC(=O)CC[C@]4(C)[C@H]3CC[C@]12C [TESTOSTERONE PROPIONATE] |  |  |  |  |  |  |  | > 30 | > 10 | > 10 | > 10 | > 10 | > 30 | > 10

Source: ChEMBL document CHEMBL5291721, “A preclinical secondary pharmacology resource illuminates target-adverse drug reaction associations of marketed drugs” (Nat Commun, 2023)
